Read-outs that look alike come from different tables or passages of the source.
Test system: SMN2-linked luciferase-reporter gene construct
Assay: SMN splice reporter assay (SMN2-linked luciferase reporter, Example 10)
Assay type: cell-based
Conditions: for maximal fold induction: read-out: SMN Splice Reporter Assay (Example 10) Avg MaxFold Increase
Summary of the method: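 Values are fold-increase in luciferase signal relative to baseline cells without compound. The cervical carcinoma line used holds a fusion of alternatively spliced SMN2 sequence and luciferase. Readable frame, and thus signal, arises only with exon 7-including splicing.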

[1] = SMN2-linked luciferase reporter, average
[2] = SMN2-linked luciferase reporter, average maximum fold increase
[3] = maximum fold increase of reporter signal, average

Compound	EC50 [1] [nM]	maximal fold induction [2]	maximal fold induction [3]	SMN Splice Reporter Assay (Example 10) Avg MaxFold Increase [3]
CC(C)(C)c1ccc(N2Cc3ccc(OC(F)F)cc3C2=O)cc1 [ALB-119043]	992	1.39		
CCc1cccc2c1C(=O)N(c1ccc(C(C)C(=O)O)cc1)C2 (centres unmarked) [ALB-113395]	1840		1.49	
Cc1cccc2c1CN(c1ccc(C(C)C)cc1)C2=O [ALB-115947]	114		1.39	
CC(C(=O)O)c1ccc(N2Cc3cc(Cl)ccc3C2=O)cc1 (centres unmarked) [ALB-111762]	358		1.38	
CC(C)NC(=O)Nc1ccc2c(c1)C(=O)N(c1ccc(C(C)C)cc1)C2 [ALB-118559]		1.1		
CC(C(=O)O)c1ccc(N2Cc3ccc(OCC(F)(F)F)cc3C2=O)cc1 (centres unmarked) [ALB-113966]	663		1.78	
C/C=C(\C)c1ccc2c(c1)C(=O)N(c1ccc(C(C)C(=O)O)cc1)C2 (centres unmarked) [ALB-114087]	226		1.88	
CC(C(=O)O)c1ccc(N2Cc3ccc(CCC(F)(F)F)cc3C2=O)cc1 (centres unmarked) [ALB-115588]	356		1.7	
CCC(C(=O)O)c1ccc(N2Cc3ccccc3C2=O)cc1 (centres unmarked) [ALB-112433]	4180		1.32	
CC(C(=O)OC(C)(C)C)c1ccc(N2Cc3cc(-c4cccs4)ccc3C2=O)cc1 (centres unmarked) [ALB-111992]			1.01	
CC(C(=O)OC(C)(C)C)c1ccc(N2Cc3c(cccc3-c3cncnc3)C2=O)cc1 (centres unmarked) [ALB-112349]			1.06	
CC(C(=O)OC(C)(C)C)c1ccc(N2Cc3ccccc3C2=O)cc1Br (centres unmarked) [ALB-111882]	2830		1.24	
CC(C(=O)NO)c1ccc(N2Cc3ccccc3C2=O)cc1 (centres unmarked) [ALB-111748]	2270		1.38	
CC(C)(C)OC(=O)C1(c2ccc(N3Cc4ccccc4C3=O)cc2)CCCC1 [ALB-112362]			1.05	
C/C=C/c1ccc2c(c1)C(=O)N(c1ccc(C(C)C)cc1)C2 [ALB-115319]			1.24	
CC(C(=O)O)c1ccc(N2Cc3cc(-c4cccs4)ccc3C2=O)cc1 (centres unmarked) [ALB-112063]	909		1.2	
CCCCc1cccc2c1C(=O)N(c1ccc(C(C)C(=O)O)cc1)C2 (centres unmarked) [ALB-113757]			1.18	
CC(C(=O)O)c1ccc(N2Cc3ccccc3C2=O)cc1-c1ccc(Cl)cc1 (centres unmarked) [ALB-112329]			1.09	
COc1cc2c(cc1F)CN(c1ccc(C(C)C)cc1)C2=O [ALB-118413]	119		1.39	
CC(C)c1ccc(N2Cc3cc(OC(F)F)ccc3C2=O)cc1 [ALB-118159]	2090	1.32		
Cc1ccc(-c2ccc3c(c2)CN(c2ccc(C(C)C(=O)O)cc2)C3=O)cc1 (centres unmarked) [ALB-111891]	8880		1.31	
CC(C(=O)N1CCOCC1)c1ccc(N2Cc3ccccc3C2=O)cc1 (centres unmarked) [ALB-112077]			1.09	
CCN(C)C(=O)N(C)c1ccc2c(c1)C(=O)N(c1ccc(C(C)C)cc1)C2 [ALB-119049]		1.08		
CC(C)c1ccc(N2Cc3cccc(N)c3C2=O)cc1 [ALB-117574]	163		1.73	
CC(C(=O)O)c1ccc(N2Cc3cc(-c4cncnc4)ccc3C2=O)cc1 (centres unmarked) [ALB-111994]	4180		1.38	

Compound	EC50 [1] [nM]	maximal fold induction [2]	maximal fold induction [3]	SMN Splice Reporter Assay (Example 10) Avg MaxFold Increase [3]
CC(C(=O)O)c1ccc(N2Cc3ccc(C4CCCC4)cc3C2=O)cc1 (centres unmarked) [ALB-114607]	35		1.51	
O=C1c2cc(Br)ccc2CN1c1ccc(C2CCCCC2)cc1 [ALB-115590]			1.11	
COc1ccc(-c2cccc3c2C(=O)N(c2ccc(C(C)C(=O)OC(C)(C)C)cc2)C3)cc1 (centres unmarked) [ALB-112152]			1.04	
CC(C(=O)O)c1ccc(N2Cc3ccc(NS(C)(=O)=O)cc3C2=O)cc1 (centres unmarked) [ALB-112071]			1.07	
CC(C(=O)O)c1ccc(N2Cc3cc4c(cc3C2=O)OCO4)cc1 (centres unmarked) [ALB-114782]	81		1.65	
CC(C)c1ccc(N2Cc3ccc(N(C)C(=O)N(C)C)cc3C2=O)cc1 [ALB-118901]	493	1.31		
CC(C(=O)O)c1ccc(N2Cc3c(cccc3-c3cccs3)C2=O)cc1 (centres unmarked) [ALB-112225]			1.07	
CNC(=O)Nc1ccc2c(c1)C(=O)N(c1ccc(C(C)C)cc1)C2 [ALB-118558]	865	1.58		
CCc1ccc(N2Cc3cc4c(cc3C2=O)OCCO4)cc1 [ALB-116240]	33	1.62		
CC(C(=O)O)c1ccc(N2Cc3ccccc3C2=O)c(-c2ccc(Cl)c(Cl)c2)c1 (centres unmarked) [ALB-112161]			1.1	
CC(C(=O)O)c1ccc(N2Cc3cccnc3C2=O)cc1 (centres unmarked) [ALB-112229a]			1.13	
CC(C(=O)O)c1ccc(N2Cc3cccc(OC4CCCC4)c3C2=O)cc1 (centres unmarked) [ALB-113566]	5150		1.96	
CC(C(=O)OC(C)(C)C)c1ccc(N2Cc3cccc(-c4ccc(Cl)c(Cl)c4)c3C2=O)cc1 (centres unmarked) [ALB-112149]			1.06	
Cc1ccc(-c2cc(N3Cc4ccccc4C3=O)ccc2C(C)C(=O)OC(C)(C)C)cc1 (centres unmarked) [ALB-112000]			1.06	
CC(C(=O)O)c1ccc(N2Cc3cc(-c4cccnc4)ccc3C2=O)cc1 (centres unmarked) [ALB-111889]			1.05	
CCOc1ccc2c(c1)C(=O)N(c1ccc(C(C)C(=O)OC(C)(C)C)cc1)C2 (centres unmarked) [ALB-113101]	242		1.38	
COc1ccc2c(c1)CN(c1ccc(C(C)C(=O)OC(C)(C)C)cc1)C2=O (centres unmarked) [ALB-111893]			1.09	
CC(C)c1ccc(N2Cc3ccc(N4CCCC4)cc3C2=O)cc1 [ALB-115715]			1.06	
CCc1ccc2c(c1)CN(c1ccc(C(C)C(=O)O)cc1)C2=O (centres unmarked) [ALB-113490]	218		1.48	
CC(C(=O)OC(C)(C)C)c1ccc(N2Cc3ccccc3C2=O)cc1-c1cncnc1 (centres unmarked) [ALB-112195]			1.06	
COc1ccc(-c2cc(N3Cc4ccccc4C3=O)ccc2C(C)C(=O)O)cc1 (centres unmarked) [ALB-112002]			1.08	
CC(C(=O)O)c1ccc(N2Cc3cccc(-c4ccccc4)c3C2=O)cc1 (centres unmarked) [ALB-112155]	26300		1.19	
CCCC1c2ccccc2C(=O)N1c1ccc(C(C)C(=O)O)cc1 (centres unmarked) [ALB-111795]	25800		1.41	
CCCCc1ccc2c(c1)C(=O)N(c1ccc(C(C)C(=O)O)cc1)C2 (centres unmarked) [ALB-115086]	61		2.06	
O=C1c2cc3c(cc2CN1c1ccc(C2CC2)cc1)OCCO3 [ALB-117043]	68	1.57		

Compound	EC50 [1] [nM]	maximal fold induction [2]	maximal fold induction [3]	SMN Splice Reporter Assay (Example 10) Avg MaxFold Increase [3]
CCOCc1ccc2c(c1)C(=O)N(c1ccc(C(C)CO)cc1)C2 (centres unmarked) [ALB-114743]	448		1.37	
CC(C(=O)OC(C)(C)C)c1ccc(N2Cc3ccc(-c4ccccc4)cc3C2=O)cc1 (centres unmarked) [ALB-112441]			1.08	
CC(C(=O)OC(C)(C)C)c1ccc(N2Cc3cccc(N)c3C2=O)cc1 (centres unmarked) [ALB-112061]	3740		1.27	
CC(C(=O)O)c1ccc(N2Cc3ccc(OCC4CCC4)cc3C2=O)cc1 (centres unmarked) [ALB-115585]	83		1.48	
CC(C)c1ccc(N2Cc3ccc(OC4CCCC4)cc3C2=O)cc1 [ALB-116077]			1.18	
Cc1ccc(-c2cc(N3Cc4ccccc4C3=O)ccc2C(C)C(=O)O)cc1 (centres unmarked) [ALB-112003]	2060		1.09	
Cc1cc(C(C)C(=O)OC(C)(C)C)ccc1N1Cc2ccccc2C1=O (centres unmarked) [ALB-112483]			1.03	
CC(C(=O)O)c1ccc(N2Cc3cccc([N+](=O)[O-])c3C2=O)cc1 (centres unmarked) [ALB-111995]	12000		1.25	
CC(C)c1ccc(N2Cc3cccc(O)c3C2=O)cc1 [ALB-118158]	733	1.54		
CCCCCc1ccc2c(c1)C(=O)N(c1ccc(C(C)C(=O)O)cc1)C2 (centres unmarked) [ALB-113388]	1120		1.77	
CC(C(=O)O)c1ccc(N2Cc3cc(N4CCOCC4)ccc3C2=O)cc1 (centres unmarked) [ALB-112554]			1.06	
CC(C(=O)OC(C)(C)C)c1ccc(N2Cc3ccccc3C2=O)cc1 (centres unmarked) [ALB-111730]	1660			1.267
CC(C)c1ccc(N2Cc3ccc(O)c(O)c3C2=O)cc1 [ALB-117903]		1.07		
CC(C(=O)OC(C)(C)C)c1ccc(N2Cc3c(cccc3-c3ccc(Cl)cc3)C2=O)cc1 (centres unmarked) [ALB-112190]			1.1	
CC(C(=O)O)c1ccc(N2CC3=C(CC=CC3)C2=O)cc1 (centres unmarked) [ALB-112896]	1010		1.58	
CC(C(=O)O)c1ccc(N2Cc3ccc(N4CCOCC4)cc3C2=O)cc1 (centres unmarked) [ALB-114738a]			1.08	
CC(C)(C)OC(=O)Cc1ccc(N2Cc3ccccc3C2=O)cc1 [ALB-112230]			1.1	
CC(C(=O)O)c1ccc(N2Cc3ccccc3C2=O)cc1-c1ccco1 (centres unmarked) [ALB-112160]			1.02	
CC(C(=O)O)c1ccc(N2Cc3cc(N(C)C)ccc3C2=O)cc1 (centres unmarked) [ALB-113646]			1.05	
COc1ccc(-c2ccc3c(c2)CN(c2ccc(C(C)C(=O)O)cc2)C3=O)cc1 (centres unmarked) [ALB-111892]	4310		1.46	
CC(C)Oc1ccc2c(c1)C(=O)N(c1ccc(C(C)C)cc1)C2 [ALB-116076]	72		1.35	
COCc1ccc(N2Cc3ccccc3C2=O)cc1 [ALB-115323]			1.1	
Cc1ccc2c(c1)C(=O)N(c1ccc(C3CC3)cc1)C2 [ALB-115949]	6	1.37		
CC(C(=O)OC(C)(C)C)c1ccc(N2Cc3ccc(NS(=O)(=O)c4ccccc4)cc3C2=O)cc1 (centres unmarked) [ALB-112072]		1.07		
CCCc1cccc2c1C(=O)N(c1ccc(C(C)C(=O)O)cc1)C2 (centres unmarked) [ALB-113756]	15700		1.33	

Reference: US8110681B2, “Compounds for the treatment of spinal muscular atrophy and other uses” (The United States of America as represented by the …, priority 2006, dated 2012)
